According to US11464866B2, “Pharmaceutical composition containing macromolecular drug” (BIODYNAMIC RESEARCH FOUNDATION, priority 2016, dated 2022):

Test system: S-180 mice (tumor model)
Details: mouse, in vivo, 1 day
Method: Method: In 1 ml of saline (0.01 M phosphate, 0.15 M NaCl, pH 7.4) were dissolved 10 mg of each sample (10 mg/ml) and the predetermined amount of each test reagent shown in Table 2. Then, 0.1 ml of each obtained solution and 0.1 ml of an aqueous solution (10 mg/ml) of Evans blue were intravenously administered to S-180 mice (tumor model) The tumor size of the mice was a diameter of 5 to 7 mm. The next day, each mouse was dissected and solid tumors were taken out therefrom. Evans blue was extracted by a conventional method and the leaked Evans blue was quantified by absorption of 560 nm (see Non-Patent Document 1).

O=[N+]([O-])OCC(CO[N+](=O)[O-])O[N+](=O)[O-] [nitroglycerin]
enhanced effect (tumor delivery): ≥ 30%
